Literature values, collected in patent US20090041869A1, “METHOD OF REDUCING INSECT RESISTANT PESTS IN […]” (PIONEER HI-BRED INTERNATIONAL, INC., priority 2004, published 2009).
Entries after “also recorded” stand apart in the source; their conditions may differ. Like-named read-outs stand apart in the source and are kept apart here.

Tested on: European corn borer, Ostrinia nubilalis
Conditions: Cry 1F selected colony vs unselected colony, likelihood ratio test at α=0.05

Substance	cross resistance of the Cry 1F selected strain to other Bt toxins	cross resistance of the Cry 1F selected strain to other Bt toxins (listed as Cry1 Ab)
Cry 1Ac: Bt crystal protein toxin assessed for cross resistance	6.89 fold	
Cry 1Ab: Bt crystal protein toxin assessed for cross resistance	No cross resistance; also recorded: does not lead to loss of susceptibility	no cross resistance
